This assay addresses T1, human poly-histidine tagged KSP motor domain (KSP(367H)) (Homo sapiens, UniProt P52732).
T1 construct: were used to amplify the motor domain and the neck linker region; made in house; host or cells: E. coli BL21 (DE3), vector pRSETa
T1 sequence (P52732 18-359 limits assumed): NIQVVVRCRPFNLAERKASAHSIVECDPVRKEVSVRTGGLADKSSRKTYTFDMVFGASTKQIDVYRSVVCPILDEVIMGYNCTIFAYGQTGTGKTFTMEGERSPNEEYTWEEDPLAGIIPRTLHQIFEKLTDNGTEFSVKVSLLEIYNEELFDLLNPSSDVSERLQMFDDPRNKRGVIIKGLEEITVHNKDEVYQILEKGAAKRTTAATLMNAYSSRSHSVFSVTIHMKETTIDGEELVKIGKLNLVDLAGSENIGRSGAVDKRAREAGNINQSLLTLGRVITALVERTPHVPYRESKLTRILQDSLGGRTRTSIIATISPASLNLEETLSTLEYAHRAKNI
Briefly: Kinesin ATPase In Vitro Assay. Type of assay: biochemical. The procedure: I. Kinesin ATPase In Vitro Assay
The N-terminal primer 5′-[…] (SEQ. ID. NO.: 1) and the C-terminal primer 5′-[…] […] (SEQ. ID. NO.: 2)
were used to amplify the motor domain and the neck linker region. The PCR products were digested with AseI and XhoI, ligated into the NdeI/XhoI digestion product of pRSETa (Invitrogen) and transformed into E. coli BL21 (DE3).
Cells were grown at 37° C. to an OD600 of 0.5. After cooling the culture to room temperature expression of KSP was induced with 100 μM IPTG and incubation was continued overnight. Cells were pelleted by centrifugation and washed once with ice-cold PBS. Pellets were flash-frozen and stored −80° C.
Protein Purification: Cell pellets were thawed on ice and resuspended in lysis buffer (50 mM K-HEPES, pH 8.0, 250 mM KCl, 0.1% Tween, 10 mM imidazole, 0.5 mM Mg-ATP, 1 mM PMSF, 2 mM benzimidine, 1× complete protease inhibitor cocktail (Roche)). Cell suspensions were incubated with 1 mg/ml lysozyme and 5 mM β-mercaptoethanol on ice for 10 minutes, followed by sonication (3×30 sec). All subsequent procedures were performed at 4° C. Lysates were centrifuged at 40,000×g for 40 minutes. Supernatants were diluted and loaded onto an SP Sepharose column (Pharmacia, 5 ml cartridge) in buffer A (50 mM K-HEPES, pH 6.8, 1 mM MgCl2, 1 mM EGTA, 10 μM Mg-ATP, 1 mM DTT) and eluted with a 0 to 750 mM KCl gradient in buffer A. Fractions containing KSP were pooled and incubated with Ni-NTA resin (Qiagen) for one hour. The resin was washed three times with buffer B (Lysis buffer minus PMSF and protease inhibitor cocktail), followed by three 15-minute incubations and washes with buffer B. Finally, the resin was incubated and washed for 15 minutes three times with buffer C (same as buffer B except for pH 6.0) and poured into a column. KSP was eluted with elution buffer (identical to buffer B except for 150 mM KCl and 250 mM imidazole). KSP-containing fractions were pooled, made 10% in sucrose, and stored at −80° C.
Microtubules are prepared from tubulin isolated from bovine brain. Purified tubulin (>97% MAP-free) at 1 mg/ml is polymerized at 37° C. in the presence of 10 μM paclitaxel, 1 mM DTT, 1 mM GTP in BRB80 buffer (80 mM K-PIPES, 1 mM EGTA, 1 mM MgCl2 at pH 6.8). The resulting microtubules are separated from non-polymerized tubulin by ultracentrifugation and removal of the supernatant. The pellet, containing the microtubules, is gently resuspended in 10 μM paclitaxel, 1 mM DTT, 50 μg/ml ampicillin, and 5 μg/ml chloramphenicol in BRB80.
The kinesin motor domain is incubated with microtubules, 1 mM ATP (1:1 MgCl2: Na-ATP), and compound at 23° C. in buffer containing 80 mM K-HEPES (pH 7.0), […], 1 mM DTT, 1 mM MgCl2, and 50 mM KCl. The reaction is terminated by a 2-10 fold dilution with a final buffer composition of 80 mM HEPES and 50 mM EDTA. […] The reaction is incubated for 10 minutes at 23° C., and the absorbance of the phospho-molybdate complex is measured at 540 nm.

Setting [1] is: (3R,4R) enantiomeric form tested, kinesin motor domain with microtubules, 1 mM ATP, 23° C., free phosphate by quinaldine red/ammonium molybdate, read-out: IC50.

The structures appear in SMILES notation. Like-named read-outs stand apart in the source and are kept apart here.

Regarding `CC(=O)C1=NN2c3cc(F)ccc3OC[C@H]2[C@H]1c1ccccc1` [Compound 1-8a, (3R,4R)-1-(8-Fluoro-3-phenyl-3a,4-dihydro-3H-pyrazolo[5,1-c][1,4]benzoxazin-2-yl)ethanone], the IC50 (usually the midpoint of a concentration-inhibition curve) was not above 30 µM.

For `CC(=O)C1=NN2c3cc(F)ccc3OC[C@H]2[C@@]1(CCCN1CCN(C(=O)CO)CC1)c1ccccc1` [Compound 4-25, 1-{(3R,4R)-8-fluoro-3-[3-(4-glycoloylpiperazin-1-yl)propyl]-3-phenyl-3a,4-dihydro-3H-pyrazolo[5,1-c][1,4]benzoxazin-2-yl}ethanone], under setting [1], the IC50 is not above 30 µM.

With `CC(=O)C1=NN2c3cc(F)ccc3OCC2[C@@]1(CCCN1CC2C[C@@H]1CO2)c1ccccc1` (mixture of isomers) [Compound 4-15, (3R,4R) 1-{8-fluoro-3-[3-(2-oxa-5-azabicyclo[2.2.1]hept-5-yl)propyl]-3-phenyl-3a,4-dihydro-3H-pyrazolo[5,1-c][1,4]benzoxazin-2-yl}ethanone], the IC50 under setting [1] is not above 30 µM.

For `COCC(=O)N1CCN(CCC[C@]2(c3ccccc3)C(C(C)=O)=NN3c4cc(F)ccc4OC[C@H]32)CC1` [Compound 4-26, 1-((3R,4R)-8-fluoro-3-{3-[4-(methoxyacetyl)piperazin-1-yl]propyl}-3-phenyl-3a,4-dihydro-3H-pyrazolo[5,1-c][1,4]benzoxazin-2-yl)ethanone], the IC50 under setting [1] was not above 30 µM.

On to `CC(=O)C1=NN2c3cc(F)ccc3OCC2C1(CCCN(C)C)c1ccccc1` [Compound 4-13, (3R,4R) 1-{3-[3-(dimethylamino)propyl]-8-fluoro-3-phenyl-3a,4-dihydro-3H-pyrazolo[5,1-c][1,4]benzoxazin-2-yl}ethanone], for which the IC50 was not above 30 µM.

In the case of `CC(=O)C1=NN2c3cc(F)ccc3OC[C@H]2[C@@]1(CCCO)c1ccccc1` [Compound 4-12, (3R,4R) 1-[8-fluoro-3-(3-hydroxypropyl)-3-phenyl-3a,4-dihydro-3H-pyrazolo[5,1-c][1,4]benzoxazin-2-yl]ethanone], the IC50 is not above 30 µM.

As for `CON(C)C(=O)C1=NN2c3cc(F)ccc3OC[C@H]2[C@@]1(CCCO)c1ccccc1` [Compound 4-11, (3R,4R) 8-fluoro-3-(3-hydroxypropyl)-N-methoxy-N-methyl-3-phenyl-3a,4-dihydro-3H-pyrazolo[5,1-c][1,4]benzoxazine-2-carboxamide], the IC50 under setting [1] is not above 30 µM.

In the case of `CC(=O)C1=NN2c3cc(F)ccc3OC[C@H]2[C@@]1(CCCN1CCN(C(=O)c2ccco2)CC1)c1ccccc1` [Compound 4-33, 1-((3R,4R)-8-fluoro-3-{3-[4-(2-furoyl)piperazin-1-yl]propyl}-3-phenyl-3a,4-dihydro-3H-pyrazolo[5,1-c][1,4]benzoxazin-2-yl)ethanone], under setting [1], the concentration for half-maximal inhibition (IC50) was not above 30 µM.

`CC(=O)C1=NN2c3cc(F)ccc3OCC2C1(CCCN1CCNCC1)c1ccccc1` [Compound 4-23, (3R,4R) 1-[8-fluoro-3-phenyl-3-(3-piperazin-1-ylpropyl)-3a,4-dihydro-3H-pyrazolo[5,1-c][1,4]benzoxazin-2-yl]ethanone] yielded an IC50 not above 30 µM.

As for `COC(=O)CC(=O)N1CCN(CCC[C@]2(c3ccccc3)C(C(C)=O)=NN3c4cc(F)ccc4OC[C@H]32)CC1` [Compound 4-32, methyl 3-(4-{3-[(3R,4R)-2-acetyl-8-fluoro-3-phenyl-3a,4-dihydro-3H-pyrazolo[5,1-c][1,4]benzoxazin-3-yl]propyl}piperazin-1-yl)-3-oxopropanoate], under setting [1], the IC50 is not above 30 µM.

Take `CNC(=O)N1CCN(CCC[C@]2(c3ccccc3)C(C(C)=O)=NN3c4cc(F)ccc4OC[C@H]32)CC1` [Compound 4-28, 4-{3-[(3R,4R)-2-acetyl-8-fluoro-3-phenyl-3a,4-dihydro-3H-pyrazolo[5,1-c][1,4]benzoxazin-3-yl]propyl}-N-methylpiperazine-1-carboxamide]: the IC50 under setting [1] was not above 30 µM.

The values above are taken from patent US7632833B2, “Mitotic kinesin inhibitors” (Merck & Co., Inc., priority 2004, dated 2009).
